Measured values taken from patent US20180193289A1, “PROTOTYPICAL MOLECULAR PHARMACOLOGIC PROFILE OF FENDILINE AGAINST NEURODEGENERATIVE AND NEURODEVELOPMENTAL DISEASES” (priority 2016, published 2018).

What was measured:
mice [1] = test: Pentylenetetrazole (PTZ) induced behavioral effects and seizures in mice; type: in vivo; conditions: Fendiline 1.0 to 50 mg/kg (po), PTZ 10 to 70 mg/kg (ip)
Method: In good agreement with the above receptors affinities and its molecular pharmacological properties, Fendiline, at 1.0 to 50 mg/kg, (po), in mice antagonized all the behavioral effects (in mice) corresponding to the symptoms, in humans, announcing the development of the neurodegenerative and neurodevelopmental diseases, i.e., anxiety, fear, social disconnection, agressivity, compulsive reactions, hypermotility, stereotypic activity, pain, lethargy and seizures, appearing at various degrees according to the amplitude of the Glutamate/GABA imbalance and to the brain regions (Basal Ganglia, Hippocampus, Cortex) affected by the above imbalance. Indeed, all the above behavioral effects (obtained, in mice, by administration of the GABAergic antagonist Pentylenetetrazole (PTZ) at 10 to 70 mg/kg, intraperitoneal (ip): with 10 to 40 mg/kg (ip) giving fear, anxiety, social disconnection, and agressivity, hypermotility and stereotypies—the latter being better expressed by previous (reserpine induced) hypersensibilisation of the brain DA receptors—and seizures (obtained at 50 to 70 mg/kg (ip) of PTZ), were antagonized by Fendiline at 1.0 to 50 mg/kg (po).

mice [2] = test: Maximal Electroshock tonic extension; conditions: mouse, in vivo
[3] = neuropathic pain animal models; type: in vivo; conditions: appropriate animal models
[4] = test system: N-methyl-D-aspartic acid (NMDA) glutamatergic receptors; test: allosteric modulation of NMDA receptors; conditions: σ1 induced
GABA (B) receptors = test: allosteric modulation of GABA (B) receptors
mice [5] = test: PTZ clonic convulsions and fatal tonic crises in mice; type: in vivo
GABA (A) receptors = test: allosteric modulation of GABA (A) receptors
sigma-1(σ1) receptor = target: T1, sigma-1(σ1) receptor (Mus musculus, UniProt O55242); test: sigma-1 agonistic/antagonistic activity in mice; type: in vivo
T1 construct: from tissue; host or cells: whole animal (mice, oral administration)

[6] = test system: cholinergic muscarinic receptors; test: modulation of muscarinic receptors; conditions: σ1 induced
sodium channels = test: allosteric modulation of sodium channels; conditions: σ1 induced

T1 sequence (O55242 whole entry): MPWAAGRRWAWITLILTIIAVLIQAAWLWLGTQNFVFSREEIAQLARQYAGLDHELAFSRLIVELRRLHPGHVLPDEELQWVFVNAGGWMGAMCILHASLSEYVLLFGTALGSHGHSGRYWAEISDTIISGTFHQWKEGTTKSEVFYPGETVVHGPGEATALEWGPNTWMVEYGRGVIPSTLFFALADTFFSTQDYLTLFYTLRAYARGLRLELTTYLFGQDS

## CC(NCCC(c1ccccc1)c1ccccc1)c1ccccc1 (stereo not shown) [Fendiline, 3,3-diphenyl-N-(1-phenylethyl) propan-1-amine]
Mice [1]
  effect on PTZ induced behavioral effects (fear, anxiety, social disconnection, agressivity, hypermotility, stereotypies, seizures): antagonized
Mice [2]
  protection against fatal tonic crises (tonic extensions), Maximal Electrochock: did not protect
[3]
  effect against neuropathic pain: analgesic effect
[4]
  modulation of NMDA glutamatergic receptors: negative allosteric modulations
GABA (B) receptors
  modulation of GABA (B) receptors: allosteric positive modulation
Mice [5]; PTZ more than 80 mg/kg (ip), in mice
  protection against fatal tonic crises (tonic extensions), high doses of PTZ: did not protect
Mice [5]; mice
  protection against PTZ clonic convulsions: did not protect
GABA (A) receptors
  modulation of GABA (A) receptors: allosteric positive modulation
sigma-1(σ1) receptor; 0,003 to 1.0 mg/kg per os (po), in mice
  sigma-1 activity at low doses: partial agonistic activity
sigma-1(σ1) receptor; more than 1.0 mg/kg (po) in mice
  sigma-1 activity at higher doses: antagonistic
sigma-1(σ1) receptor; mouse, in vivo
  sigma-1 intrinsic activity: low intrinsic activity
[6]
  modulation of cholinergic muscarinic receptors: discreet negative modulation
Sodium channels
  modulation of sodium channels: negative allosteric modulations
